Here are results for one compound from ChEMBL document CHEMBL4373747 (ACS Med Chem Lett, 2020).

Data set [1] deals with Histone deacetylase 3 (Homo sapiens, UniProt O15379). The experiment in a line: Inhibition of recombinant full length human HDAC3 expressed in baculovirus infected Sf9 cells using FAM-RHKK-Ac as substrate incubated for 3 hrs by electrophoretic mobility shift assay. In general terms: In EMSA bound probe runs differently from free probe, usually more slowly.
Data set [2] deals with T1, Protein deacetylase HDAC6 (Homo sapiens, UniProt Q9UBN7).
T1 sequence (Q9UBN7 whole entry): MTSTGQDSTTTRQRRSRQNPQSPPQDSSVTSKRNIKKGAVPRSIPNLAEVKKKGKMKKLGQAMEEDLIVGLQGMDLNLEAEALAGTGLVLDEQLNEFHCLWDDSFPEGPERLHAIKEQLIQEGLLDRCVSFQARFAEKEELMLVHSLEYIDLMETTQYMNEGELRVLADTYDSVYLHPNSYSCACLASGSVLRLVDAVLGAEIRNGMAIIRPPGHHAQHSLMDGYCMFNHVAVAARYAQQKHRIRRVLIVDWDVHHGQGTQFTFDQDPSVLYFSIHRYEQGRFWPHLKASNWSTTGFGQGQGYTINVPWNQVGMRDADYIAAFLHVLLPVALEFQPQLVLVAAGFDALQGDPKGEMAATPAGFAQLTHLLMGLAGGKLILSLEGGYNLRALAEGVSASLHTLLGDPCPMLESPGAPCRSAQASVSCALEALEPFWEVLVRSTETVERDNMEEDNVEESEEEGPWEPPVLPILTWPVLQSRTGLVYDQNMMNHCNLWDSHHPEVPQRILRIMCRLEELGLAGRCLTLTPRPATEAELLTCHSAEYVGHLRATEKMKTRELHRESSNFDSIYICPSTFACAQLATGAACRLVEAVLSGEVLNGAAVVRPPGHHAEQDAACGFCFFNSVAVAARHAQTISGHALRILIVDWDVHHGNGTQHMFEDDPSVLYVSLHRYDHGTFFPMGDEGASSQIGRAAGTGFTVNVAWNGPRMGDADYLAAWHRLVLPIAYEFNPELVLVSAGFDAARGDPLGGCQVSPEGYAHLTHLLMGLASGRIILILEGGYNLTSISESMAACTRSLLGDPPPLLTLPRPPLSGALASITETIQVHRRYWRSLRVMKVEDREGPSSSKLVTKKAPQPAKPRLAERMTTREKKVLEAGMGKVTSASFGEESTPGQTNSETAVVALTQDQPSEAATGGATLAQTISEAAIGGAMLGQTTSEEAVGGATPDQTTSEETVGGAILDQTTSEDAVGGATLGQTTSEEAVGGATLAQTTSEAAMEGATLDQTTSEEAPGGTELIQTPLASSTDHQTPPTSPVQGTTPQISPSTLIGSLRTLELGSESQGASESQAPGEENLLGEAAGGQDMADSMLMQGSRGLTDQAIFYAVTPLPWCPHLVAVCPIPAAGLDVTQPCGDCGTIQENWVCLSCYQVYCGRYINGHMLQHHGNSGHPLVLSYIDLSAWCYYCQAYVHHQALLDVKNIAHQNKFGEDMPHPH
Nature of the data set: Inhibition of recombinant full length human HDAC6 expressed in baculovirus infected Sf9 cells assessed as inhibitory constant using FAM-RHKK-Ac as substrate incubated for 5 hrs by electrophoretic mobility shift assay.

In data set [3] the test system is MDA-MB-468. The experiment in a line: Cytotoxicity against human MDA-MB-468 cells assessed as reduction in cell viability incubated for 72 hrs by cell-titer blue assay. The format is functional, cell-based. The following applies: MDA-MB-468, 72 h.
For data set [4], the target named is T2, Polyamine deacetylase HDAC10 (Homo sapiens, UniProt Q969S8).
T2 sequence (Q969S8 whole entry): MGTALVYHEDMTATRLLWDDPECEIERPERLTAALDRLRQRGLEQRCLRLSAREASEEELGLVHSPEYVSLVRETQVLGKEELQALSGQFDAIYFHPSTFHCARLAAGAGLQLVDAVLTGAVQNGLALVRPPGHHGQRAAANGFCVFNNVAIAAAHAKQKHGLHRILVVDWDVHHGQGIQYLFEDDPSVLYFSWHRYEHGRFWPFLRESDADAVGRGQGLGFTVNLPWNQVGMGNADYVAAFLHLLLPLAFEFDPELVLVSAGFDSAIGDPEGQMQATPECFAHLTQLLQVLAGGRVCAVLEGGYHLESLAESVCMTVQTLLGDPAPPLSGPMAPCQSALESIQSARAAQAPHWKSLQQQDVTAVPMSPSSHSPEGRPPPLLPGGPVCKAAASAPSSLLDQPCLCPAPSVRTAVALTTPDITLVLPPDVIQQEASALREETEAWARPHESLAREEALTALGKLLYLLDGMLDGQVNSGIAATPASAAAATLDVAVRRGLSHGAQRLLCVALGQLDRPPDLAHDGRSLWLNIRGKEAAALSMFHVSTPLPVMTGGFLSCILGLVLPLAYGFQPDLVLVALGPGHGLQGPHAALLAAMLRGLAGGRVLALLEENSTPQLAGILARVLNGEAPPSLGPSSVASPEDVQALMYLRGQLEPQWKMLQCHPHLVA
Nature of the data set: Inhibition of recombinant full length human HDAC10 expressed in baculovirus infected Sf9 cells using FAM-RHKK-Ac as substrate incubated for 17 hrs by electrophoretic mobility shift assay.

Data set [5] concerns MV4-11. Nature of the data set: Induction of apoptosis in human MV4-11 cells assessed as early apoptotic cells at 1 uM incubated for 18 hrs by annexin V FITC and PI based flow cytometry (reference value: 19.46 to 22.17 %). The format is functional. A general note: A flow cytometer gives signals particle by particle.
For data set [6], the system named is MV4-11. The experiment in a line: Induction of apoptosis in human MV4-11 cells assessed as late apoptotic cells at 0.5 uM incubated for 18 hrs by annexin V FITC and PI based flow cytometry (reference value: 9.2 to 9.63 %). The format is functional.
Data set [7] relates to MV4-11. The experiment in a line: Induction of apoptosis in human MV4-11 cells assessed as viable cells at 0.25 uM incubated for 18 hrs by annexin V FITC and PI based flow cytometry (reference value: 53.01 to 53.07 %). The settings on record: Homo sapiens, MV4-11, 18 h; read-out: Activity. The format is functional.
Data set [8] concerns MV4-11. Nature of the data set: Induction of apoptosis in human MV4-11 cells assessed as early apoptotic cells at 0.25 uM incubated for 18 hrs by annexin V FITC and PI based flow cytometry (reference value: 19.46 to 22.17 %). The format is functional.
Data set [9] has as its system MV4-11. The experiment in a line: Induction of apoptosis in human MV4-11 cells assessed as viable cells at 0.5 uM incubated for 18 hrs by annexin V FITC and PI based flow cytometry (reference value: 53.01 to 53.07 %). The format is functional. The following applies: Homo sapiens, MV4-11, 18 h; read-out: Activity.
Data set [10] has as its system MV4-11. The experiment in a line: Induction of apoptosis in human MV4-11 cells assessed as late apoptotic cells at 1 uM incubated for 18 hrs by annexin V FITC and PI based flow cytometry (reference value: 9.2 to 9.63 %). The format is functional.
Data set [11] relates to MV4-11. Nature of the data set: Induction of apoptosis in human MV4-11 cells assessed as viable cells at 4 uM incubated for 18 hrs by annexin V FITC and PI based flow cytometry (reference value: 53.01 to 53.07 %). The format is functional. The settings on record: Homo sapiens, MV4-11, 18 h; read-out: Activity.
The nature of data set [12]: Apparent permeability from apical to basolateral side in human Caco2 cells incubated for 2 hrs by LC/MS analysis. The format is ADME, cell-based, Caco-2. The settings on record: Caco-2. On the technique in general: Caco-2 cells form a polarised layer with tight junctions and transporters.
The nature of data set [13]: Efflux ratio of apparent permeability in human Caco2 cells incubated for 2 hrs by LC/MS analysis. The following applies: Caco-2. The format is ADME, cell-based, Caco-2.
Data set [14] in a line: Oral bioavailability in CD-1 mouse at 20 mg/kg measured upto 24 hrs by LC/MS/MS analysis. The settings on record: in vivo. The format is ADME, organism-based.

Where only a bound is given, the exact number is not on record here.

By IC50 is commonly meant the midpoint of a concentration-inhibition curve. What is called Ki is a measure of affinity in units of concentration, obtained from inhibition or displacement. The Papp A→B is the apparent permeability from the apical to the basolateral side of a cell layer. As a reminder, the efflux ratio is a quotient of directional permeabilities that is used to spot active efflux. Usually bioavailability stands for dose-corrected exposure relative to a reference, in per cent.

Sequence of Histone deacetylase 3 (O15379 whole entry): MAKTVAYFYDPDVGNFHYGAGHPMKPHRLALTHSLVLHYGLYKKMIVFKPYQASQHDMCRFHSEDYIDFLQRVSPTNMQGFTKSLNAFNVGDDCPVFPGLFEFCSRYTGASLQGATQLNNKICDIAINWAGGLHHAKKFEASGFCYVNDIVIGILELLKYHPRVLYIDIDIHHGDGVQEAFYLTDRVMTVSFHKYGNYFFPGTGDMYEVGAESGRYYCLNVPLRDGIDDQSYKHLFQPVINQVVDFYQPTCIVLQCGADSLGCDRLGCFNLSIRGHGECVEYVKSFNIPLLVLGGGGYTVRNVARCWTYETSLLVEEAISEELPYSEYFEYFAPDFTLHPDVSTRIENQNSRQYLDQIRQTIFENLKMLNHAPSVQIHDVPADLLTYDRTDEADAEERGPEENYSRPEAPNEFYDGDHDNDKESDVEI

Take `CC(C)(C)c1ccc(C(=O)Nc2ccc(C(=O)NO)cc2)cc1`: the IC50 in [1] is 187 nM; in [3] it was above 50000 nM; in data set [4] it was 899 nM. Besides, in data set [2], the Ki was found to be 35 nM. Further, the Activity in data set [5] was 29.78%; in data set [6], 11.7%; in data set [8] it was 17.82%; in data set [10], 16.08%. Moreover, the viability at 0.25 µM in data set [7] was 57.5%. For the same compound, the viability at 0.5 µM in [9] came to 48.7%. The viability at 4 µM in data set [11] was 16.3%. In addition, the apparent permeability from apical to basolateral (Papp A→B) at 2 h in data set [12] was 3.45 ×10⁻⁶ cm/s. In addition, the efflux ratio at 2 h in data set [13] is 0.64. The compound also displayed a bioavailability in [14] of 19.8%.
